Columns and labels:
[1] = Plasma stability in human sera; type: in vitro ADME; conditions: for remaining at 0.5 h: plasma, human sera, 30 minutes
Method: (§1) The plasma and chemical stability of various cargo/carrier peptide constructs described in Example 1 was tested. Plasma stability of the compounds was tested using both human and rat sera and the amount of starting material was determined after 30 minutes of treatment. Chemical stability was evaluated by determining the amount of starting material remaining after 9 days of treatment.
(§2) The plasma stability of various cargo/carrier peptide constructs described in Example 1 was tested using both human and rat sera and the amount of starting material was determined over time to 30 minutes of treatment. The time course data for cargo/carrier peptides KP-1586, KP-1630, and KP-1631 is shown in FIG. 3, the data for peptides KP-1632, KP-1633, and KP-1634 is shown in FIG. 4, and the data for peptides KP-1635, KP-1636, and KP-1637 is shown in FIG. 5.

[2] = Plasma stability in rat sera; type: in vitro ADME; conditions: 30 minutes
Method: as §1, §2

[3] = Chemical stability of cargo/carrier peptide constructs; type: physicochemical; conditions: 9 days of treatment
Method: as §1
The chemical stability of various cargo/carrier peptide constructs described in Example 1 was tested by examining the relative concentration of the peptides over a time period of more than 200 hours at 37° C.

[4] = test system: carrageenan-induced mechanical hyperalgesia; assay: Carrageenan inflammatory pain model, Randall-Selitto paw-withdrawal test; type: in vivo, rat
Method: (§3) The nociceptive flexior reflex was quantified on lightly restrained rats by using a Basile Analgesymeter (Randall-Selitto test). Inflammatory hyperlagesia was induced by injection of Carr (1%, 5 uL, i.d.), which was injected unilaterally to the dorsum of the hindpaw one-hour prior to compound administration. The εPKC inhibitor peptide (εV1-2) was injected via systemic routes.
as §3, with “μL,” for “uL,”, “one-hr” for “one-hour”
The rat carrageenan model has been extensively used to evaluate the response to modulators of inflammatory pain. In the model used for the studies described below, a single 5 microL injection of a 1% solution of carrageenan into the plantar surface of the right hindpaw was used to elicit an inflammatory response resulting in local edema and mechanical hyperalgesia. The mechanical hyperalgesia was quantitated as previously described using measurements of the nociceptive flexion reflex (Randall-Selitto paw-withdrawal test) in response to mechanical painful stimulation at the site of carrageenan injection. […] In the absence of further treatment, the PWT remained stable at ˜55 g for several hours, making it possible to use this model to evaluate the time-course of the response to treatment over the course of at least six hours after the establishment of the disease state.

Compound: CC(=O)N[C@@H](CSSC[C@H](N)C(=O)N[C@@H](CCC(=O)O)C(=O)N[C@@H](C)C(=O)N[C@H](C(=O)N[C@@H](CO)C(=O)N[C@@H](CC(C)C)C(=O)N[C@@H](CCCCN)C(=O)N1CCC[C@H]1C(=O)N[C@H](C(=O)O)[C@@H](C)O)C(C)C)C(=O)N[C@@H](Cc1ccc(O)cc1)C(=O)NCC(=O)N[C@@H](CCCNC(=N)N)C(=O)N[C@@H](CCCCN)C(=O)N[C@@H](CCCCN)C(=O)N[C@@H](CCCNC(=N)N)C(=O)N[C@@H](CCCNC(=N)N)C(=O)N[C@@H](CCC(N)=O)C(=O)N[C@@H](CCCNC(=N)N)C(=O)N[C@@H](CCCNC(=N)N)C(=O)N[C@@H](CCCNC(=N)N)C(N)=O [KP-1586, C-E-A-V-S-L-K-P-T]
- remaining at 0.5 h [1]: 85%
- remaining at 0.5 h [2]: 77%
- remaining at 216 h [3]: 57%

Compound: CC(=O)N[C@@H](CSSC[C@H](NC(C)=O)C(=O)N[C@@H](CCC(=O)O)C(=O)N[C@@H](C)C(=O)N[C@H](C(=O)N[C@@H](CO)C(=O)N[C@@H](CC(C)C)C(=O)N[C@@H](CCCCN)C(=O)N1CCC[C@H]1C(=O)N[C@H](C(N)=O)[C@@H](C)O)C(C)C)C(=O)N[C@@H](Cc1ccc(O)cc1)C(=O)NCC(=O)N[C@@H](CCCNC(=N)N)C(=O)N[C@@H](CCCCN)C(=O)N[C@@H](CCCCN)C(=O)N[C@@H](CCCNC(=N)N)C(=O)N[C@@H](CCCNC(=N)N)C(=O)N[C@@H](CCC(N)=O)C(=O)N[C@@H](CCCNC(=N)N)C(=O)N[C@@H](CCCNC(=N)N)C(=O)N[C@@H](CCCNC(=N)N)C(N)=O [KP-1630, Ac-C-E-A-V-S-L-K-P-T-NH2]
- Plasma stability, time course to 30 minutes ([1]; human and rat sera, FIGS. 3-5): little impact on plasma stability
- remaining at 0.5 h [1]: 76%
- remaining at 0.5 h [2]: 77%
- remaining at 216 h [3]: 67%

Compound: CC(=O)N[C@@H](CSSC[C@H](NC(C)=O)C(=O)N[C@@H](CC(C)C)C(=O)N[C@@H](CCCCN)C(=O)N1CCC[C@H]1C(=O)N[C@H](C(=O)N[C@@H](C)C(=O)N[C@@H](Cc1c[nH]c2ccccc12)C(=O)N[C@@H](CO)C(=O)N[C@@H](CC(C)C)C(=O)N[C@@H](CCCNC(=N)N)C(N)=O)[C@@H](C)O)C(=O)N[C@@H](Cc1ccc(O)cc1)C(=O)NCC(=O)N[C@@H](CCCNC(=N)N)C(=O)N[C@@H](CCCCN)C(=O)N[C@@H](CCCCN)C(=O)N[C@@H](CCCNC(=N)N)C(=O)N[C@@H](CCCNC(=N)N)C(=O)N[C@@H](CCC(N)=O)C(=O)N[C@@H](CCCNC(=N)N)C(=O)N[C@@H](CCCNC(=N)N)C(=O)N[C@@H](CCCNC(=N)N)C(N)=O [KP-1631, Ac-C-L-K-P-T-A-W-S-L-R-NH2]
- remaining at 0.5 h [1]: 49%
- remaining at 0.5 h [2]: 67%
- remaining at 216 h [3]: 76%

Compound: CC(=O)N[C@@H](CSSC[C@H](NC(C)=O)C(=O)N[C@@H](CCC(=O)O)C(=O)N[C@@H](C)C(=O)N[C@H](C(=O)N[C@@H](CO)C(=O)N[C@@H](CC(C)C)C(=O)N[C@@H](CCCCN)C(=O)N1CCC[C@H]1C(=O)N[C@H](C(=O)N[C@@H](C)C(=O)N[C@@H](Cc1c[nH]c2ccccc12)C(=O)N[C@@H](CO)C(=O)N[C@@H](CC(C)C)C(=O)N[C@@H](CCCNC(=N)N)C(=O)O)[C@@H](C)O)C(C)C)C(=O)N[C@@H](Cc1ccc(O)cc1)C(=O)NCC(=O)N[C@@H](CCCNC(=N)N)C(=O)N[C@@H](CCCCN)C(=O)N[C@@H](CCCCN)C(=O)N[C@@H](CCCNC(=N)N)C(=O)N[C@@H](CCCNC(=N)N)C(=O)N[C@@H](CCC(N)=O)C(=O)N[C@@H](CCCNC(=N)N)C(=O)N[C@@H](CCCNC(=N)N)C(=O)N[C@@H](CCCNC(=N)N)C(N)=O [KP-1632, Ac-C-E-A-V-S-L-K-P-T-A-W-S-L-R]
- remaining at 0.5 h [1]: 54%
- remaining at 0.5 h [2]: 61%
- remaining at 216 h [3]: 89%

Compound: CC(=O)N[C@@H](CCC(=O)O)C(=O)N[C@@H](C)C(=O)N[C@H](C(=O)N[C@@H](CO)C(=O)N[C@@H](CC(C)C)C(=O)N[C@@H](CCCCN)C(=O)N1CCC[C@H]1C(=O)N[C@H](C(=O)NCC(=O)NCC(=O)NCCCC[C@H](NC(=O)CNC(=O)CNC(=O)[C@@H](NC(=O)[C@@H]1CCCN1C(=O)[C@H](CCCCN)NC(=O)[C@H](CC(C)C)NC(=O)[C@H](CO)NC(=O)[C@@H](NC(=O)[C@H](C)NC(=O)[C@H](CCC(=O)O)NC(C)=O)C(C)C)[C@@H](C)O)C(=O)N[C@@H](CSSC[C@H](NC(C)=O)C(=O)N[C@@H](Cc1ccc(O)cc1)C(=O)NCC(=O)N[C@@H](CCCNC(=N)N)C(=O)N[C@@H](CCCCN)C(=O)N[C@@H](CCCCN)C(=O)N[C@@H](CCCNC(=N)N)C(=O)N[C@@H](CCCNC(=N)N)C(=O)N[C@@H](CCC(N)=O)C(=O)N[C@@H](CCCNC(=N)N)C(=O)N[C@@H](CCCNC(=N)N)C(=O)N[C@@H](CCCNC(=N)N)C(N)=O)C(=O)O)[C@@H](C)O)C(C)C [KP-1634, [Ac-E-A-V-S-L-K-P-T-G-G]-K-C]
- remaining at 0.5 h [1]: 87%
- remaining at 0.5 h [2]: 106%
- remaining at 216 h [3]: 82%

Compound: CC(=O)N[C@@H](CSSC[C@@H](NC(=O)[C@@H](CCC(=O)O)NC(=O)[C@@H](C)NC(=O)[C@H](NC(=O)[C@@H](CO)NC(=O)[C@@H](CC(C)C)NC(=O)[C@@H](CCCCN)NC(=O)[C@H]1CCCN1C(=O)[C@H](N)[C@H](C)O)C(C)C)C(=O)O)C(=O)N[C@@H](Cc1ccc(O)cc1)C(=O)NCC(=O)N[C@@H](CCCNC(=N)N)C(=O)N[C@@H](CCCCN)C(=O)N[C@@H](CCCCN)C(=O)N[C@@H](CCCNC(=N)N)C(=O)N[C@@H](CCCNC(=N)N)C(=O)N[C@@H](CCC(N)=O)C(=O)N[C@@H](CCCNC(=N)N)C(=O)N[C@@H](CCCNC(=N)N)C(=O)N[C@@H](CCCNC(=N)N)C(N)=O [KP-1635, t-p-k-l-s-v-a-e-c]
- remaining at 0.5 h [1]: 63%
- remaining at 0.5 h [2]: 72%
- remaining at 216 h [3]: 95%

Compound: CC(C)C[C@H](NC(=O)[C@H](CO)NC(=O)[C@@H](NC(=O)[C@H](C)NC(=O)[C@H](CCC(=O)O)NC(=O)[C@@H](N)CSSC[C@H](N)C(=O)N[C@@H](Cc1ccc(O)cc1)C(=O)NCC(=O)N[C@@H](CCCNC(=N)N)C(=O)N[C@@H](CCCCN)C(=O)N[C@@H](CCCCN)C(=O)N[C@@H](CCCNC(=N)N)C(=O)N[C@@H](CCCNC(=N)N)C(=O)N[C@@H](CCC(N)=O)C(=O)N[C@@H](CCCNC(=N)N)C(=O)N[C@@H](CCCNC(=N)N)C(=O)N[C@@H](CCCNC(=N)N)C(=O)O)C(C)C)C(=O)N[C@@H](CCCCN)C(=O)N1CCC[C@H]1C(=O)N[C@H](C(=O)O)[C@@H](C)O [KP-1636, C-E-A-V-S-L-K-P-T, reference compound]
- remaining at 0.5 h [1]: 79%
- remaining at 0.5 h [2]: 79%
- remaining at 216 h [3]: 27%

Compound: CC(=O)N[C@@H](CCSSCC[C@H](NC(C)=O)C(=O)N[C@@H](CCC(=O)O)C(=O)N[C@@H](C)C(=O)N[C@H](C(=O)N[C@@H](CO)C(=O)N[C@@H](CC(C)C)C(=O)N[C@@H](CCCCN)C(=O)N1CCC[C@H]1C(=O)N[C@H](C(N)=O)[C@@H](C)O)C(C)C)C(=O)N[C@@H](Cc1ccc(O)cc1)C(=O)NCC(=O)N[C@@H](CCCNC(=N)N)C(=O)N[C@@H](CCCCN)C(=O)N[C@@H](CCCCN)C(=O)N[C@@H](CCCNC(=N)N)C(=O)N[C@@H](CCCNC(=N)N)C(=O)N[C@@H](CCC(N)=O)C(=O)N[C@@H](CCCNC(=N)N)C(=O)N[C@@H](CCCNC(=N)N)C(=O)N[C@@H](CCCNC(=N)N)C(=O)O [KP-1638, Ac-hC-E-A-V-S-L-K-P-T-NH2]
- remaining at 216 h [3]: 100%

Compound: COc1ccc2c(c1)c(CC(=O)O)c(C)n2C(=O)c1ccc(Cl)cc1 [indomethacin, reference compound]
- Carrageenan-induced mechanical hyperalgesia ([4]; oral, 10 mg/kg, after end of 5-hr IV infusion of KAI-1678): completely reversed the mechanical hyperalgesia

Compound: E-A-V-S-L-K-P-T (EAVSLKPT) [εV1-2]
- Anti-hyperalgesic effect after surgical sympathectomy ([4]; bilateral lumbar sympathectomy plus suprarenal ganglionectomy 7 days before): completely abolished anti-hyperalgesic effects
- Paw-withdrawal threshold (PWT) ([4]; intradermal and subcutaneous injection, FIG. 14): Increases in paw-withdrawal threshold (PWT)
- Carr-induced mechanical hyperalgesia ([4]; subcutaneous injection, ipsilateral or contralateral hindlimb or dorsal trunk): dose-dependently suppressed Carr-induced mechanical hyperalgesia
- Carr-induced mechanical hyperalgesia after nerve transection ([4]; subcutaneous, distal to transection of sciatic and saphenous nerves, contralateral paw): no longer suppression of Carr-induced mechanical hyperalgesia

— patent US8492346B2, “Methods of use of epsilon inhibitor compounds for the attenuation of pain” (KAI Pharmaceuticals, Inc., priority 2007, dated 2013)
